According to ChEMBL document CHEMBL3046239, “Lethal and Antifeedant Substance from Rhizome of Alpinia galanga SW. (Zingiberaceae)” (1998):

Assays:
Assay type in all cases: functional
Plutella xylostella [1] = assay: Antifeedant effect in Plutella xylostella (diamondback moth) in compound treated fresh cabbage leaves assessed as feeding reduction at 106.2 ug/cm'2 by no-choice leaf disk method
Plutella xylostella [2] = assay: Antifeedant effect in Plutella xylostella (diamondback moth) in compound treated fresh cabbage leaves assessed as feeding reduction at 66.4 ug/cm'2 by no-choice leaf disk method
Plutella xylostella [3] = assay: Lethal effect on Plutella xylostella (diamondback moth) in fresh cabbage leaves assessed as mortality at 10 ug/insect measured 24 hr after treatment by topical application method
Callosobruchus chinensis [4] = assay: Lethal effect on Callosobruchus chinensis assessed as mortality measured per insect after 24 hr treatment by topical application method
Plutella xylostella [5] = assay: Lethal effect on Plutella xylostella (diamondback moth) in fresh cabbage leaves assessed as mortality at 8 to 10 ug/insect measured 48 hr after treatment by topical application method
Plutella xylostella [6] = assay: Lethal effect on Plutella xylostella (diamondback moth) in fresh cabbage leaves assessed as mortality measured per insect after 48 hr treatment by topical application method
Callosobruchus chinensis [7] = assay: Lethal effect on Callosobruchus chinensis assessed as mortality at 8 ug/insect measured 24 hr after treatment by topical application method

With `C=C[C@H](OC(C)=O)c1ccc(OC(C)=O)cc1` [1'-ACETOXYCHAVICOL ACETATE] the AFI (Plutella xylostella [1]) was 98.8%, the AFI (Plutella xylostella [2]) was 88.5% and the mortality (Plutella xylostella [3]) was 83.3%. It also gave an LD50 (Callosobruchus chinensis [4]) of 3 µg, a mortality (Plutella xylostella [5]) of 100% and an LD50 (Plutella xylostella [6]) of 4.5 µg. It also gave a mortality (Callosobruchus chinensis [7]) of 95%.
